Test results reported in a compilation of properties of binary mixtures (doi:10.1016/j.molliq.2020.112481).

Assay: xn = mol fraction of the nth substance listed
Conditions: 100 kPa

OCCO + CCCC[n+]1ccn(C)c1.O=S(=O)([O-])C(F)(F)F
x2 = 0
Conditions | speed of sound [m/s] | viscosity [mPa·s]
298.15 K | 1655 | 16.39
308.15 K | 1631.5 | 11.16
313.15 K | 1619.7 | 9.34
318.15 K | 1607.9 | 7.91
323.15 K | 1596.1 | 6.75

CCCC[n+]1ccn(C)c1.O=S(=O)([O-])C(F)(F)F + OCCO
Conditions | speed of sound [m/s] | viscosity [mPa·s]
298.15 K, x1 = 0.1936 | 1517.5 | 17.41
298.15 K, x1 = 0.2985 | 1478.8 | 20.69
298.15 K, x1 = 0.3912 | 1456.1 | 23.59
298.15 K, x1 = 0.4999 | 1437.2 | 26.6
298.15 K, x1 = 0.6055 | 1423.5 | 29.8
298.15 K, x1 = 0.7966 | 1410.5 | 42
298.15 K, x1 = 0.9035 | 1404.8 | 57.9
298.15 K, x1 = 1 | 1393.2 | 82.4
303.15 K, x1 = 0.1936 | 1505.9 | 14.07
303.15 K, x1 = 0.2985 | 1467.3 | 16.81
303.15 K, x1 = 0.3912 | 1444.6 | 19.28
303.15 K, x1 = 0.6055 | 1412.2 | 24.5
303.15 K, x1 = 0.7966 | 1399.2 | 34.3
303.15 K, x1 = 0.9035 | 1393.6 | 47
303.15 K, x1 = 1 | 1382.8 | 66.7
308.15 K, x1 = 0.0926 | 1551.3 | 10.51
308.15 K, x1 = 0.1936 | 1494.4 | 11.7
308.15 K, x1 = 0.3912 | 1433.2 | 15.95
308.15 K, x1 = 0.6055 | 1400.9 | 20.86
308.15 K, x1 = 0.9035 | 1382.5 | 38.6
308.15 K, x1 = 1 | 1371.7 | 52.9
313.15 K, x1 = 0.0926 | 1539.6 | 8.82
313.15 K, x1 = 0.1936 | 1482.8 | 9.82
313.15 K, x1 = 0.3912 | 1421.9 | 13.48
313.15 K, x1 = 0.6055 | 1389.8 | 17.79
313.15 K, x1 = 0.7966 | 1376.9 | 24.6
313.15 K, x1 = 0.9035 | 1371.5 | 32.3
313.15 K, x1 = 1 | 1360.7 | 43.7
318.15 K, x1 = 0.1936 | 1471.4 | 8.3
318.15 K, x1 = 0.2985 | 1433.2 | 9.91
318.15 K, x1 = 0.3912 | 1410.7 | 11.51
318.15 K, x1 = 0.6055 | 1378.7 | 15.37
318.15 K, x1 = 0.6922 | 1371.2 | 17.42
318.15 K, x1 = 0.7966 | 1365.9 | 21.09
318.15 K, x1 = 0.9035 | 1360.5 | 27.3
318.15 K, x1 = 1 | 1349.9 | 36.3
323.15 K, x1 = 0.0926 | 1516.4 | 6.2
323.15 K, x1 = 0.2985 | 1421.9 | 8.4
323.15 K, x1 = 0.4999 | 1381 | 11.65
323.15 K, x1 = 0.6055 | 1367.7 | 13.42
323.15 K, x1 = 0.6922 | 1360.3 | 15.17
323.15 K, x1 = 0.9035 | 1349.7 | 23.24
323.15 K, x1 = 1 | 1338.8 | 30.6
